From US10131663B2, “Chemical compounds” (AstraZeneca AB, priority 2016, dated 2018)
Values after ≈ are worked out from the molar mass of the structure shown.

What was measured:
[1] = target: recombinant human Estrogen Receptor alpha ligand binding domain (ER alpha-LBD (GST)) (Homo sapiens (Human), UniProt P03372); test: ERα binding assay (LanthaScreen TR-FRET competition); details: TR-FRET, displacement of Fluormone ES2
Experimental: The ability of compounds to bind to isolated Estrogen Receptor Alpha Ligand binding domain (ER alpha-LBD (GST)) was assessed in competition assays using a LanthaScreen™ Time-Resolved Fluorescence Resonance Energy Transfer (TR-FRET) detection end-point. […] The assay principle is that ER alpha-LBD (GST) is added to a fluorescent ligand to form a receptor/fluorophore complex. A terbium-labelled anti-GST antibody (Product code PV3551) is used to indirectly label the receptor by binding to its GST tag, and competitive binding is detected by a test compound's ability to displace the fluorescent ligand, resulting in a loss of TR-FRET signal between the Tb-anti-GST antibody and the tracer. The assay was performed as follows with all reagent additions carried out using the Beckman Coulter BioRAPTR FRD microfluidic workstation: • 1. Acoustic dispense 120 nL of the test compound into a black low volume 384 well assay plates. • 2. Prepare 1×ER alpha-LBD/Tb-antiGST Ab in ES2 screening buffer and incubate for 15 minutes. • 3. Dispense 6 μL of the 1×[…]/Tb-anti-GST Ab reagent into each well of the assay plate followed by 6 μL of Fluorophore reagent into each well of the assay plate • 4. Cover the assay plate to protect the reagents from light and evaporation, and incubate at room temperature for 4 hours. • 5.
TR-FRET dose response data obtained with each compound was exported into a suitable software package (such as Origin or Genedata) to perform curve fitting analysis. Competitive ER alpha binding was expressed as an IC50 value.

[2] = target: Estrogen Receptor (ERα) in MCF-7 cells (Homo sapiens (Human), UniProt P03372); test: MCF-7 ER down-regulation assay (immuno-fluorescence); assay type: cell-based
Experimental: The Echo uses acoustic technology to perform direct microplate-to-microplate transfers of DMSO compound solutions to assay plates. […] Cells were fixed at room temperature for 20 mins before being washed two times with 250 μL PBS/Proclin (PBS with a Biocide preservative) using a BioTek platewasher, 40 μL of PBS/Proclin was then added to all wells and the plates stored at 4° C. The fixing method described above was carried out on the Integrated Echo 2 workcell. Immunostaining was performed using an automated AutoElisa workcell. […] The plates were incubated overnight at 4° C. […] The mean total intensity was normalized for cell number giving the total intensity per cell. The data was exported into a suitable software package (such as Origin) to perform curve fitting analysis.

[3] = Thermodynamic solubility (shake-flask); assay type: physicochemical; details: aqueous phosphate buffer, 25 °C, pH 7.4, aqueous buffer, thermodynamic from solid, aqueous phosphate buffer pH 7.4, 24 hours
Experimental: The thermodynamic solubility of a research compound is measured under standard conditions. It is a shake-flask approach that uses 10 mM DMSO solutions which are supplied from the Compound Managements liquid store and is a high throughput method. The dried compounds are equilibrated in an aqueous phosphate buffer (pH 7.4) for 24 hours at 25° C., the portion with the dissolved compound is then separated from the remains. The solutions are analyzed and quantified using UPLC/MS/MS, QC-samples are incorporated in each assay-run to ensure the quality of the assay.

[4] = Human plasma protein binding (equilibrium dialysis); assay type: in vitro ADME; details: dialysis 18 hours
Experimental: The automated equilibrium dialysis assay in human plasma uses the RED (Rapid Equilibrium Dialysis) Device and sample handling. The assay generally runs over two to three days including delivery of results. After dialysis for 18 hours, plasma and buffer samples are prepared for analysis by liquid chromatography and mass spectrometry. Samples are generally tested in singlicates and quantified by LC/MSMS by using a 7-point calibration curve in plasma. The compounds are pooled together in plasma pools up to 10 compounds. Three reference compounds are used in each run, Propranolol, Metoprolol and Warfarin. Warfarin is used as a control in each pool and Propranolol and Metoprolol are placed randomly in each run. An in-house Excel macro is used for preparation of files for the robot and the mass spectrometer and is also used for the calculations of fraction unbound (fu %) in plasma.

hERG potassium channel = hERG potassium channel (Homo sapiens (Human), UniProt Q12809); test: hERG binding assay (automated patch clamp, CHO cells); assay type: cell-based; details: CHO cell line, Nanion Syncropatch 384PE
Experimental: Reagent preparations include: • 1.
Cell preparations: • 1. If using cell culture; cells to be incubated at 30° C. for approximately 4-6 days prior to being used. Day of assay lift cells using accutase and re-suspend in 20 ml cell buffer to a density of 0.8 to 1e6 cells/ml. • 2. If using assay ready cryovials; rapidly thaw two cryovials at 37° C. and slowly pipette into 23 ml external solution • 3.
All compounds were acoustically dispensed in quadruplicate using a Labcyte Echo. […] Fill 384 well medium resistance 4 hole chips with 40 μl external buffer and perfuse internal buffer to the underside of plate. • 2. Dispense 20 μl of cells into each well of the chip followed by 20 μl of seal enhancer. • 3. Remove 40 μl of reagent from each well to the wash station, leaving a residual volume of 40 μl • 4. Dispense 40 μl of reference buffer with a removal step of 40 μl after 3 min, repeat this step. • 5.
hERG-mediated currents were elicited using a voltage step protocol consisting of acontinuous holding voltage of −80 mV, with a 500 ms step to 60 mV followed by a 500 ms step to −40 mV every 15 seconds. hERG current magnitude was measured automatically from the leak-subtracted traces by the Nanion software by taking the peak of the hERG “tail” current at −40 mV every 15 seconds and taking the last three of these responses for each concentration to generate the concentration-effect curve.
Calculation of results is performed using APC package within Genedata. For the routine normalization of well data with Neutral and Inhibitor control well groups as reference, GeneData Assay Analyzer uses the following equation to normalize the signal values to the desired signal range:
[formula] • x is the measured raw signal value of a well • is the median of the measured signal values for the Central Reference (Neutral) wells on a plate • is the median of the measured signal values for the Scale Reference (Inhibitor) wells on a plate • CR is the desired median normalized value for the Central Reference (Neutral) • SR is the desired median normalized value for the Scale Reference (Inhibitor)

[5] = log D (shake flask, 1-octanol/aqueous buffer); assay type: physicochemical
Description: The lipophilicity of a drug is an important physical property which may influence many biological and metabolic properties of a compound, for example the absorption, distribution, metabolism, excretion and toxicity profiles of a compound. The distribution coefficient between 1-octanol and aqueous buffer, Log DO/W, at pH 7.4, is the most commonly used measurement of the lipophilicity of a compound. The current method for measurement of Log DO/W is based on the traditional shake flask technique, but with the modification of measuring compounds in mixtures of ten at a time using UPLC with quantitative mass spectrometry (MS) as a method to measure the relative octanol and aqueous concentrations. […] An additional QC sample Caffeine, with low Log D, are used and randomly placed in all runs. The method has been thoroughly validated against the previous shake flask methodologies.

[6] = Human Caco-2 bidirectional permeability A to B and B to A; assay type: in vitro ADME; details: Caco-2, 2 hours, pH 7.4
Experimental: An automated assay was used to determine the bidirectional permeability (efflux and uptake) of compounds in Caco-2 cells carried out over 2 hours at pH 7.4.
The efflux ratio (ER) can be determined using the following equation: ER=Papp(B-A)/Papp(A-B) Where Papp (B-A) indicates the apparent permeability coefficient in basolateral to apical direction, and Papp (A-B) indicates the apparent permeability coefficient in apical to basolateral direction. Human Caco-2 Passive Permeability A to B Papp

[7] = 1-octanol/aqueous buffer, pH 7.4, pH 7.4, 1-octanol/aqueous buffer
[8] = pH 7.4, 1-octanol/aqueous buffer

Chain of recombinant human Estrogen Receptor alpha ligand binding domain (ER alpha-LBD (GST)) (P03372 307-554): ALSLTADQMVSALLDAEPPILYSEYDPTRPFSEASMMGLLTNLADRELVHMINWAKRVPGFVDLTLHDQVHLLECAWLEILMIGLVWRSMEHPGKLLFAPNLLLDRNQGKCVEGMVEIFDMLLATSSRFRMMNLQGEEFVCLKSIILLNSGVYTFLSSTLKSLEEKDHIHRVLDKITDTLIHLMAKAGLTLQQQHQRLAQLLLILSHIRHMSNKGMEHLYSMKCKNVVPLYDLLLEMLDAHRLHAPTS
Chain of Estrogen Receptor (ERα) in MCF-7 cells (P03372 whole entry): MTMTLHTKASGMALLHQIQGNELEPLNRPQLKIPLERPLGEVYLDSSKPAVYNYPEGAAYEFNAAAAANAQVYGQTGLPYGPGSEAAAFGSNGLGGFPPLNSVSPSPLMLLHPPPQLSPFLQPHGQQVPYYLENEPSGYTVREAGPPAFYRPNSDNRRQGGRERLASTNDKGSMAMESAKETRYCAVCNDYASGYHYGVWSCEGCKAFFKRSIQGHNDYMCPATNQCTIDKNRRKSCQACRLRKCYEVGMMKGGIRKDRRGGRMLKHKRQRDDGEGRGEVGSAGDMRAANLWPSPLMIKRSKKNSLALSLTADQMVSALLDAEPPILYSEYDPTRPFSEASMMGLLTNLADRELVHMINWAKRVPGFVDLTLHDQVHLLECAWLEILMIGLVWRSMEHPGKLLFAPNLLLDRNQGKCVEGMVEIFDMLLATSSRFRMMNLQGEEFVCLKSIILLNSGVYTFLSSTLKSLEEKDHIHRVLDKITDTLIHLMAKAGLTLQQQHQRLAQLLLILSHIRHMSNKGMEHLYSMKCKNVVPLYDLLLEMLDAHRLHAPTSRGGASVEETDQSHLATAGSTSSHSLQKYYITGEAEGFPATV
Chain of hERG potassium channel (Q12809 whole entry): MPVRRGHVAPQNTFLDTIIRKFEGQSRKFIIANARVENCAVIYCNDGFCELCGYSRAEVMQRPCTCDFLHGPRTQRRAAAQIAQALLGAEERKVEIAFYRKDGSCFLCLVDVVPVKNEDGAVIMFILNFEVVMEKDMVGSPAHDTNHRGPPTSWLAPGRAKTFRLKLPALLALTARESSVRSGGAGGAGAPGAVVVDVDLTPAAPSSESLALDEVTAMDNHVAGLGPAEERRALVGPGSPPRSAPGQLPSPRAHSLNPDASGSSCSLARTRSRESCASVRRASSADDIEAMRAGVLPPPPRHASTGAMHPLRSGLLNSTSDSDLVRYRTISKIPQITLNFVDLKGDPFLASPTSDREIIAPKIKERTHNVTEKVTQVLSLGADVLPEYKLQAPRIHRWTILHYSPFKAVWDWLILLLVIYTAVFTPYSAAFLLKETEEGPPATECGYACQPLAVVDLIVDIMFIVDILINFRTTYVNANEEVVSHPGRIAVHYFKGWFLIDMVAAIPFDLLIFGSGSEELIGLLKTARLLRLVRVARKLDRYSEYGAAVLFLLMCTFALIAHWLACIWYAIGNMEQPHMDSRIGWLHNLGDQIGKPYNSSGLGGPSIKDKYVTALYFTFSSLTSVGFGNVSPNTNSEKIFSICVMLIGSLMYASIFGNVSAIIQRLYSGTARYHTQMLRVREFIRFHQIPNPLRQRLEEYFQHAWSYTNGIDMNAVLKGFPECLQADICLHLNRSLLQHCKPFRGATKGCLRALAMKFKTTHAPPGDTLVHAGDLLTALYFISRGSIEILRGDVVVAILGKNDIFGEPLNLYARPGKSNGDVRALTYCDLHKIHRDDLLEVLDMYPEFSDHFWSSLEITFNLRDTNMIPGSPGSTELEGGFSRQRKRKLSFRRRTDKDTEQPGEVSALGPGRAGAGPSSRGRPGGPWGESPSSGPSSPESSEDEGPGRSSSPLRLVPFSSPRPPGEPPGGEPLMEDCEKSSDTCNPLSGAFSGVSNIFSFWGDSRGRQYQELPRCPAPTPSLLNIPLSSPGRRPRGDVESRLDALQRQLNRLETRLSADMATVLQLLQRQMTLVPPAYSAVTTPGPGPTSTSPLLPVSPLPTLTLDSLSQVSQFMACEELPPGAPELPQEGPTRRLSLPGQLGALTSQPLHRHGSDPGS

Structure (SMILES) | IC50 [1] [nM] | IC50 [2] [nM] | solubility at 24 h [3] [µM] | Human plasma protein binding (% free) [4] [% free] | IC50 (hERG potassium channel) [nM] | logD [5, 7] | Papp at 2 h [6] [×10⁻⁶ cm/s] | logD [5, 8]
C[C@@H]1Cc2c(ccc3[nH]ncc23)[C@@H](c2ccc(NC3CN(CCCF)C3)c(F)c2)N1CC(F)(F)F [Example 41, N-(2-fluoro-4-((6R,8R)-8-methyl-7-(2,2,2-trifluoroethyl)-6,7,8,9-tetrahydro-3H-pyrazolo[4,3-f]isoquinolin-6-yl)phenyl)-1-(3-fluoropropyl)azetidin-3-amine] | 2.4 | 0.17 | 120 (≈ 59.2 µg/mL) | 2.2 | 6500 | 4.1 |  | 
C[C@@H]1Cc2c(ccc3[nH]ncc23)[C@@H](c2ncc(NC3CN(CCCF)C3)cc2F)N1CC(F)(F)CO [Example 31, 2,2-Difluoro-3-((6S,8R)-6-(3-fluoro-5-((1-(3-fluoropropyl)azetidin-3-yl)amino)pyridin-2-yl)-8-methyl-3,6,8,9-tetrahydro-7H-pyrazolo[4,3-f]isoquinolin-7-yl)propan-1-ol] |  |  | > 942 | 44 |  | 2 | 0.9 | 
COc1cc(NC2CN(CCCF)C2)ccc1[C@]1(C)c2ccc3[nH]ncc3c2C[C@@H](C)N1CC(F)F [Example 45, N-(4-((6S,8R)-7-(2,2-difluoroethyl)-6,8-dimethyl-6,7,8,9-tetrahydro-3H-pyrazolo[4,3-f]isoquinolin-6-yl)-3-methoxyphenyl)-1-(3-fluoropropyl)azetidin-3-amine] | 1.6 | 0.3 | 172 (≈ 86.3 µg/mL) | 6.2 | 4200 | 3.9 |  | 
C[C@@H]1Cc2c(ccc3[nH]nc(F)c23)[C@@H](c2ccc(NC3CN(CCCF)C3)c(F)n2)N1CC(F)(F)CO [Example 62, 2,2-difluoro-3-((6S,8R)-1-fluoro-6-(6-fluoro-5-((1-(3-fluoropropyl)azetidin-3-yl)amino)pyridin-2-yl)-8-methyl-3,6,8,9-tetrahydro-7H-pyrazolo[4,3-f]isoquinolin-7-yl)propan-1-ol] | 1 | 0.13 | 784 (≈ 411 µg/mL) | 19 | > 40000 | 2.8 |  | 
C[C@@H]1Cc2c(ccc3[nH]nc(F)c23)[C@@H](c2ccc(NC3CN(CCCF)C3)cn2)N1CC(F)(F)CO [Example 61, 2,2-difluoro-3-((6S,8R)-1-fluoro-6-(5-((1-(3-fluoropropyl)azetidin-3-yl)amino)pyridin-2-yl)-8-methyl-3,6,8,9-tetrahydro-7H-pyrazolo[4,3-f]isoquinolin-7-yl)propan-1-ol] | 0.88 | 0.13 | 848 (≈ 430 µg/mL) | 29 | > 40000 | 2.7 |  | 
C[C@@H]1Cc2c(ccc3[nH]nc(F)c23)[C@@H](c2ccc(NC3CN(CCCF)C3)c(F)n2)N1CC(F)(F)F [Example 39, 2-fluoro-6-((6S,8R)-1-fluoro-8-methyl-7-(2,2,2-trifluoroethyl)-6,7,8,9-tetrahydro-3H-pyrazolo[4,3-f]isoquinolin-6-yl)-N-(1-(3-fluoropropyl)azetidin-3-yl)pyridin-3-amine] | 0.94 | 0.048 | 257 (≈ 132 µg/mL) | 6.8 | 14000 |  |  | 3.7
CC1(C)Cc2c(ccc3[nH]ncc23)[C@@H](c2ccc(NC3CN(CCCF)C3)cn2)N1CC(F)F [Example 73, (S)-6-(7-(2,2-difluoroethyl)-8,8-dimethyl-6,7,8,9-tetrahydro-3H-pyrazolo[4,3-f]isoquinolin-6-yl)-N-(1-(3-fluoropropyl)azetidin-3-yl)pyridin-3-amine] | 3.4 | 0.77 | 925 (≈ 437 µg/mL) | 22 | 12000 |  |  | 3
COc1cc(N(C)C2CN(CCCF)C2)ccc1[C@@H]1c2ccc3[nH]ncc3c2C[C@@H](C)N1CC1(F)CC1 [Example 52, N-(4-((6S,8R)-7-((1-fluorocyclopropyl)methyl)-8-methyl-6,7,8,9-tetrahydro-3H-pyrazolo[4,3-f]isoquinolin-6-yl)-3-methoxyphenyl)-1-(3-fluoropropyl)-N-methylazetidin-3-amine] | 11 | 0.21 | 864 (≈ 440 µg/mL) | 19 | 2000 | 3 |  | 
C[C@@H]1Cc2c(ccc3[nH]nc(F)c23)[C@@H](c2cnc(NC3CN(CCCF)C3)cn2)N1CC(F)(F)F [Example 38, 5-((6S,8R)-1-fluoro-8-methyl-7-(2,2,2-trifluoroethyl)-6,7,8,9-tetrahydro-3H-pyrazolo[4,3-f]isoquinolin-6-yl)-N-(1-(3-fluoropropyl)azetidin-3-yl)pyrazin-2-amine] | 0.69 | 0.19 | 794 (≈ 393 µg/mL) | 13 | 18000 | 3.1 |  | 
